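Tested at 5 concentrations; 48 h exposure; 96-well plates; endpoints linearly interpolated, else capped at highest concentration. The concentration for full growth arrest is given as TGI.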
Legend:
Assay in all cases: NCI-60 cell line screen, 48 h
[1] = tested on: A498 renal
[2] = tested on: ACHN renal
[3] = tested on: CAKI-1 renal
[4] = tested on: CCRF-CEM leukemia
[5] = tested on: COLO 205 colon
[6] = tested on: DLD-1 colon
[7] = tested on: DMS 114 small cell lung
[8] = tested on: DMS 273 small cell lung
[9] = tested on: EKVX NSCLC
[10] = tested on: HCT-15 colon
[11] = tested on: HL-60(TB) leukemia
[12] = tested on: HOP-18 NSCLC
[13] = tested on: HOP-92 NSCLC
[14] = tested on: HT29 colon
[15] = tested on: IGROV1 ovarian
[16] = tested on: K-562 leukemia
[17] = tested on: KM20L2 colon
[18] = tested on: LOX IMVI melanoma
[19] = tested on: LXFL 529 NSCLC
[20] = tested on: M14 melanoma
[21] = tested on: M19-MEL melanoma
[22] = tested on: MALME-3M melanoma
[23] = tested on: MOLT-4 leukemia
[24] = tested on: NCI-H226 lung
[25] = tested on: NCI-H23 lung
[26] = tested on: NCI-H460 lung
[27] = tested on: NCI-H522 lung
[28] = tested on: OVCAR-3 ovarian
[29] = tested on: OVCAR-8 ovarian
[30] = tested on: RPMI-8226 leukemia
[31] = tested on: RXF-631 renal
[32] = tested on: SF-268 CNS
[33] = tested on: SF-295 CNS
[34] = tested on: SF-539 CNS
[35] = tested on: SK-MEL-2 melanoma
[36] = tested on: SK-MEL-28 melanoma
[37] = tested on: SK-MEL-5 melanoma
[38] = tested on: SK-OV-3 ovarian
[39] = tested on: SN12C renal
[40] = tested on: SNB-19 CNS
[41] = tested on: SNB-75 CNS
[42] = tested on: SNB-78 CNS
[43] = tested on: SW-620 colon
[44] = tested on: TK-10 renal
[45] = tested on: U251 CNS
[46] = tested on: UACC-62 melanoma
[47] = tested on: UO-31 renal
[48] = tested on: XF 498 CNS
[49] = tested on: 786-0 renal
[50] = tested on: A549 NSCLC
[51] = tested on: HCC-2998 colon
[52] = tested on: KM12 colon
[53] = tested on: OVCAR-4 ovarian
[54] = tested on: OVCAR-5 ovarian
[55] = tested on: RXF 393 renal
[56] = tested on: UACC-257 melanoma
[57] = tested on: HCT-116 colon
[58] = tested on: HOP-62 NSCLC

C#CCC1(C(=O)OCC)C(=O)c2ccccc2N(C)C1=O (configuration not stated)
TGI [1]: > 100 µM
TGI [2]: > 100 µM
TGI [3]: > 100 µM
TGI [4]: > 100 µM
TGI [5]: > 100 µM
TGI [6]: > 100 µM
TGI [7]: > 100 µM
TGI [8]: > 100 µM
TGI [9]: > 100 µM
TGI [10]: > 100 µM
TGI [11]: > 100 µM
TGI [12]: > 100 µM
TGI [13]: > 100 µM
TGI [14]: > 100 µM
TGI [15]: > 100 µM
TGI [16]: > 100 µM
TGI [17]: > 100 µM
TGI [18]: > 100 µM
TGI [19]: > 100 µM
TGI [20]: > 100 µM
TGI [21]: > 100 µM
TGI [22]: > 100 µM
TGI [23]: > 100 µM
TGI [24]: > 100 µM
TGI [25]: 36.9 µM
TGI [26]: > 100 µM
TGI [27]: 27.3 µM
TGI [28]: > 100 µM
TGI [29]: > 100 µM
TGI [30]: > 100 µM
TGI [31]: > 100 µM
TGI [32]: > 100 µM
TGI [33]: > 100 µM
TGI [34]: > 100 µM
TGI [35]: > 100 µM
TGI [36]: > 100 µM
TGI [37]: > 100 µM
TGI [38]: > 100 µM
TGI [39]: > 100 µM
TGI [40]: > 100 µM
TGI [41]: > 100 µM
TGI [42]: > 100 µM
TGI [43]: > 100 µM
TGI [44]: > 100 µM
TGI [45]: > 100 µM
TGI [46]: > 100 µM
TGI [47]: > 100 µM
TGI [48]: 95.9 µM

COc1ccc(S(=O)(=O)N(C)CC(=O)O)cc1
TGI [49]: > 100 µM
TGI [1]: > 100 µM
TGI [50]: > 100 µM
TGI [2]: > 100 µM
TGI [3]: > 100 µM
TGI [4]: > 100 µM
TGI [5]: > 100 µM
TGI [6]: > 100 µM
TGI [8]: > 100 µM
TGI [9]: > 100 µM
TGI [51]: > 100 µM
TGI [10]: > 100 µM
TGI [11]: > 100 µM
TGI [12]: > 100 µM
TGI [13]: > 100 µM
TGI [14]: > 100 µM
TGI [15]: > 100 µM
TGI [16]: > 100 µM
TGI [52]: > 100 µM
TGI [17]: > 100 µM
TGI [18]: > 100 µM
TGI [19]: > 100 µM
TGI [20]: > 100 µM
TGI [21]: > 100 µM
TGI [22]: > 100 µM
TGI [23]: > 100 µM
TGI [24]: > 100 µM
TGI [25]: > 100 µM
TGI [26]: > 100 µM
TGI [27]: > 100 µM
TGI [28]: > 100 µM
TGI [53]: > 100 µM
TGI [54]: > 100 µM
TGI [29]: > 100 µM
TGI [30]: > 100 µM
TGI [55]: > 100 µM
TGI [31]: > 100 µM
TGI [32]: > 100 µM
TGI [33]: > 100 µM
TGI [34]: > 100 µM
TGI [35]: > 100 µM
TGI [36]: > 100 µM
TGI [37]: > 100 µM
TGI [38]: > 100 µM
TGI [39]: > 100 µM
TGI [40]: > 100 µM
TGI [41]: > 100 µM
TGI [43]: > 100 µM
TGI [44]: > 100 µM
TGI [45]: > 100 µM
TGI [56]: > 100 µM
TGI [46]: > 100 µM
TGI [47]: > 100 µM
TGI [48]: > 100 µM

FC1OC2OC1C(OCc1ccccc1)C(OCc1ccccc1)C2OCc1ccccc1 (configuration not stated)
TGI [49]: > 100 µM
TGI [1]: > 100 µM
TGI [50]: > 100 µM
TGI [3]: > 100 µM
TGI [4]: 75.8 µM
TGI [5]: > 100 µM
TGI [6]: > 100 µM
TGI [7]: > 100 µM
TGI [8]: > 100 µM
TGI [9]: > 100 µM
TGI [57]: 63.2 µM
TGI [10]: > 100 µM
TGI [11]: 62.9 µM
TGI [12]: 96.4 µM
TGI [13]: 64 µM
TGI [14]: > 100 µM
TGI [15]: > 100 µM
TGI [16]: 75.1 µM
TGI [52]: > 100 µM
TGI [17]: > 100 µM
TGI [18]: > 100 µM
TGI [19]: > 100 µM
TGI [20]: > 100 µM
TGI [21]: > 100 µM
TGI [22]: > 100 µM
TGI [23]: 67.4 µM
TGI [24]: > 100 µM
TGI [25]: > 100 µM
TGI [26]: > 100 µM
TGI [28]: > 100 µM
TGI [53]: > 100 µM
TGI [54]: > 100 µM
TGI [29]: > 100 µM
TGI [30]: 61.2 µM
TGI [55]: > 100 µM
TGI [31]: > 100 µM
TGI [32]: > 100 µM
TGI [33]: > 100 µM
TGI [34]: > 100 µM
TGI [35]: > 100 µM
TGI [36]: > 100 µM
TGI [37]: > 100 µM
TGI [38]: > 100 µM
TGI [39]: > 100 µM
TGI [40]: > 100 µM
TGI [41]: > 100 µM
TGI [42]: > 100 µM
TGI [43]: > 100 µM
TGI [44]: > 100 µM
TGI [45]: > 100 µM
TGI [56]: > 100 µM
TGI [46]: > 100 µM
TGI [47]: > 100 µM
TGI [48]: > 100 µM

C[C@]12CC[C@H](OC3CCCCO3)CC1=CC[C@@H]1C2CC[C@]2(C)/C(=N/O)CCC12 (some centres not stated)
TGI [49]: 55.8 µM
TGI [1]: > 100 µM
TGI [50]: 34.9 µM
TGI [2]: 54.3 µM
TGI [3]: > 100 µM
TGI [6]: > 100 µM
TGI [7]: 37.9 µM
TGI [8]: 51.8 µM
TGI [9]: 82.9 µM
TGI [51]: 37.8 µM
TGI [57]: 29.6 µM
TGI [10]: 44.5 µM
TGI [12]: 30.5 µM
TGI [58]: > 100 µM
TGI [13]: 46 µM
TGI [14]: 26.8 µM
TGI [15]: > 100 µM
TGI [16]: > 100 µM
TGI [52]: 32.4 µM
TGI [17]: 30.5 µM
TGI [18]: 27.5 µM
TGI [19]: 45.6 µM
TGI [20]: 63.9 µM
TGI [22]: 80.4 µM
TGI [23]: 48.9 µM
TGI [25]: 39.1 µM
TGI [26]: 62.1 µM
TGI [27]: 31.1 µM
TGI [28]: 31.1 µM
TGI [53]: 39 µM
TGI [54]: 75.6 µM
TGI [29]: 40.5 µM
TGI [30]: 40 µM
TGI [55]: 44.8 µM
TGI [33]: 34.9 µM
TGI [34]: > 100 µM
TGI [35]: 89.7 µM
TGI [36]: 54.3 µM
TGI [37]: > 100 µM
TGI [38]: 82 µM
TGI [39]: 31.5 µM
TGI [40]: 67.1 µM
TGI [41]: 41.9 µM
TGI [42]: 64.4 µM
TGI [43]: > 100 µM
TGI [44]: 70.1 µM
TGI [45]: 40.4 µM
TGI [56]: 79.8 µM
TGI [46]: > 100 µM
TGI [47]: > 100 µM
TGI [48]: 68.6 µM

Source: PubChem BioAssay (NCI)
